Data: patent US20150359886A1, “SYSTEM AND METHODS FOR NANOSTRUCTURE PROTECTED DELIVERY OF TREATMENT AGENT AND SELECTIVE RELEASE THEREOF” (priority 2012, published 2015)

Columns and labels:
MIA PaCa-2 (MIA) = assay: Cell viability assay (MTT dye assay), MIA PaCa-2 pancreatic cancer cells; format: cell-based, Human; details: for cell death (killing) of pancreatic cancer cells: FIG. 2, single agents even at high doses, combination at relatively low dose
Experimental: (§1) Science signaling 2, ra17 (2009).
(§2) Accordingly, experiments were carried out to examine the magnitude of chemosensitization of C6-ceramide on Taxol in different cancer cell lines. The pancreatic cancer cell lines L3.6. PANC-1 and MIA PaCa-2 (MIA) cells were selected for this experiment. […] However, the side effects noted above remain a challenging problem in this combination regimen and calls for a new delivery method.

PANC-1 = assay: Cell viability assay (MTT dye assay), PANC-1 pancreatic cancer cells; format: cell-based, Human; details: for cell death (killing) of pancreatic cancer cells: FIG. 2, single agents even at high doses, combination at relatively low dose
Experimental: as §1, §2

L3.6 cells = format: cell-based; details: for cell death (killing) of pancreatic cancer cells: FIG. 2, single agents even at high doses, combination at relatively low dose; for concentration required for a comparable effect with the exogenously applied treatment: exogenously applied Taxol + C6-ceramide combination, no CNT carrier
Experimental: Human pancreatic cancer lines PANC-1, MIA PaCa-2 (MIA) and L3.6 cells culture, cell viability assay (MTT dye assay) and Western blots assay were performed as described in Cao, C., et al. Galpha(i1) and Galpha(i3) are required for epidermal growth factor-mediated activation of the Akt-mTORC1 pathway. Science signaling 2, ra17 (2009).
Accordingly, experiments were carried out to examine the magnitude of chemosensitization of C6-ceramide on Taxol in different cancer cell lines. The pancreatic cancer cell lines L3.6. PANC-1 and MIA PaCa-2 (MIA) cells were selected for this experiment.
Using same pancreatic cancer cells (L3.6), the inductive heating release was we next tested the on-commandinductive-heating release of the encapsulated chemotherapeutic agents (Taxol and C6-ceramide) from CNTs. The drug-loaded CNTs were added to L3.6 cells for 12 hours, allowing them to be taken up by the cells. The cells were then washed with fresh basal medium (DMEM) 5 times to remove residual CNTs from the media, and a 30 min a.c. magnetic field (25 kHz) was applied to these cells to release the encapsulated drugs (Taxol and C6-ceramide) present in CNTs within the cells. After 48 h, the release of the drugs was inferred and assessed by the degree of cell death.

[1] = sensitization of Taxol-induced cell death

## CCCCCCCCCCCCC/C=C/[C@@H](O)[C@H](CO)NC(=O)CCCCC [C6-ceramide]
MIA PaCa-2 (MIA)
  cell death (killing) of pancreatic cancer cells: limited killing
MIA PaCa-2 (MIA); [1]
  concentration needed to reach the chemosensitization effect: 5-10 micrograms per milliliter
PANC-1
  cell death (killing) of pancreatic cancer cells: limited killing
PANC-1; [1]
  concentration needed to reach the chemosensitization effect: 5-10 micrograms per milliliter
L3.6 cells; L3.6
  cell death (killing) of pancreatic cancer cells: limited killing
L3.6 cells; L3.6, sensitization of Taxol-induced cell death
  concentration needed to reach the chemosensitization effect: 5-10 micrograms per milliliter
L3.6 cells
  concentration required for a comparable effect with the exogenously applied treatment: 10 µg/mL

## CC(=O)O[C@H]1C(=O)[C@@]2(C)[C@H]([C@H](OC(=O)c3ccccc3)[C@]3(O)C[C@H](OC(=O)[C@H](O)[C@@H](NC(=O)c4ccccc4)c4ccccc4)C(C)=C1C3(C)C)[C@]1(OC(C)=O)CO[C@@H]1C[C@@H]2O [Taxol, Paclitaxel]
MIA PaCa-2 (MIA)
  cell death (killing) of pancreatic cancer cells: limited killing
PANC-1
  cell death (killing) of pancreatic cancer cells: limited killing
L3.6 cells; L3.6
  cell death (killing) of pancreatic cancer cells: limited killing
L3.6 cells
  concentration required for a comparable effect with the exogenously applied treatment: 3 µg/mL
